Results taken from ChEMBL document CHEMBL4265997, “Decision Making in Medicinal Chemistry: The Power of Our Intuition” (ACS Med Chem Lett, 2018).

Molecular target: Estrogen receptor beta (Homo sapiens, UniProt Q92731)
Assay: Antagonist activity at ER-beta (unknown origin)

Estrogen receptor beta, sequence (Q92731 whole entry): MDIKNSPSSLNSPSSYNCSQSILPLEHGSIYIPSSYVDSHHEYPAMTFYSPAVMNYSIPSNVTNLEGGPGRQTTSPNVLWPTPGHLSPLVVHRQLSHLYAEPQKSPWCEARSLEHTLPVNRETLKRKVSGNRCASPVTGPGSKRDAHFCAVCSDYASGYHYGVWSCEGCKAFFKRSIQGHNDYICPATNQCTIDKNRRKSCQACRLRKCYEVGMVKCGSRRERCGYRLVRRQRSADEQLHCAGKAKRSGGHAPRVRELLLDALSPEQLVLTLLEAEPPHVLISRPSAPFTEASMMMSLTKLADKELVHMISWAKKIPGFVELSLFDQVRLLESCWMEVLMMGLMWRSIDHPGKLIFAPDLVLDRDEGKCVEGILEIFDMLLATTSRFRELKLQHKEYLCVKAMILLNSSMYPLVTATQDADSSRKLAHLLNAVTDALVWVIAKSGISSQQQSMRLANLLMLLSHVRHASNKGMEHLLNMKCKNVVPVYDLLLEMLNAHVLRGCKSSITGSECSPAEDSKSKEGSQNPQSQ

Row | IC50 [nM] | SMILES
1 | 0.631 | CNC(=O)c1ccc2nc(C)c3nnc(-c4cc(OCC(C)C)ccc4Cl)n3c2c1
2 | 2.51 | CNC(=O)c1ccc2nc(C)c3nnc(-c4ccccc4Cl)n3c2c1
